Data reported in US8987193B2, “Nisin derivatives and the use thereof” (University College Cork—National University of Ireland, Cork, priority 2008, dated 2015).
Where two headings read alike, the source gives them in different places. Ends that are not written are not given here.

Key:
[1] = test system: L. monocytogenes CBC3; experiment: Deferred antagonism assay; type: cell-based, Listeria monocytogenes; design: key: + = Enhanced bioactivity relative to control; − = Bioactivity equal to or less than control; NA = no activity evident; details: producing strain; L. mono CBC3
Procedure, shortened: (§1)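 L. lactis NZ9800 strains expressing nisin A hinge variants were replicated or spotted on GM17 agar, grown overnight, then overlaid with 0.75% w/v agar seeded with indicator. Zone size is the clearing diameter minus 5 mm colony growth.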

[2] = test system: L. monocytogenes CBC2; experiment: Deferred antagonism assay; type: cell-based, Listeria monocytogenes; design: key: + = Enhanced bioactivity relative to control; − = Bioactivity equal to or less than control; NA = no activity evident; details: producing strain; L. mono CBC2
Procedure, shortened: as §1

[3] = test system: L. monocytogenes CBC1; experiment: Deferred antagonism assay; type: cell-based, Listeria monocytogenes; design: key: + = Enhanced bioactivity relative to control; − = Bioactivity equal to or less than control; NA = no activity evident; details: producing strain; L. mono CBC1
Procedure, shortened: as §1

[4] = test system: Strep. agalactiae ATCC13813; experiment: Deferred antagonism assay; type: cell-based; details: chromosomal replacement strains; Strep. agalactiae ATCC 13813
[5] = test system: indicator strains; experiment: Deferred antagonism assays, various indicator strains (summary); type: cell-based; details: relative to nisin A-producing control; value = strains listed
Procedure, shortened: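 Producer strains were replicated on GM17 or GM17 x-gal agar, grown overnight, then overlaid with GM17, BHI, TS or MH soft agar (0.75% w/v) seeded with the indicator strain. Zone size was taken as the clearing diameter minus the diameter of bacterial growth (5 mm).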

[6] = test system: Strep. agalactiae ATCC13813; experiment: Deferred antagonism assay; type: cell-based; details: producing strain, diameter of zone minus 5 mm, average of duplicates
[7] = test system: Staph. aureus DPC5245; experiment: Deferred antagonism assay; type: cell-based; details: producing strain; diameter of zone minus 5 mm; average of duplicates; St. aureus DPC5245
Procedure, shortened: (§2)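 Producer strains replicated on GM17 agar, grown overnight, then overlaid with soft agar (0.75% w/v) seeded with indicator strain. Zone size = clearing diameter minus 5 mm growth diameter, relative to NZ9800 pCI372nisA control; mean of duplicates.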

[8] = test system: Staph. aureus ST528 (MRSA); experiment: Deferred antagonism assay; type: cell-based; details: producing strain, diameter of zone minus diameter of bacterial growth (5 mm), average of duplicates
Procedure, shortened: as §2

[9] = test system: L. plantarum CBC6; experiment: Deferred antagonism assay; type: cell-based, Lactobacillus plantarum; design: key: + = Enhanced bioactivity relative to control; − = Bioactivity equal to or less than control; NA = no activity evident; details: producing strain
Procedure, shortened: as §1

[10] = test system: S. aureus CBC4; experiment: Deferred antagonism assay; type: cell-based; design: key: + = Enhanced bioactivity relative to control; − = Bioactivity equal to or less than control; NA = no activity evident; details: producing strain
Procedure, shortened: as §1

[11] = test system: L. lactis CBC7; experiment: Deferred antagonism assay; type: cell-based; design: key: + = Enhanced bioactivity relative to control; − = Bioactivity equal to or less than control; NA = no activity evident; details: producing strain
Procedure, shortened: as §1

[12] = test system: L. lactis CBC8; experiment: Deferred antagonism assay; type: cell-based; design: key: + = Enhanced bioactivity relative to control; − = Bioactivity equal to or less than control; NA = no activity evident; details: producing strain
Procedure, shortened: as §1

[13] = test system: C. sporogenes CBC5; experiment: Deferred antagonism assay; type: cell-based, Clostridium sporogenes; design: key: + = Enhanced bioactivity relative to control; − = Bioactivity equal to or less than control; NA = no activity evident; details: producing strain
[14] = test system: Strep. agalactiae ATCC13813; experiment: Activity of concentrated peptide preparations; type: cell-based; details: data not shown
Source text: (§3) The most common post-translational modifications of lantibiotics involve the dehydration of serine to dehydroalanine (Dha) and of threonine to dehydrobutyrine (Dhb). These dehydrated residues interact with cysteine to form intramolecular lanthionine and β-methyllanthionine bridges, respectively.

[15] = test system: L. lactis HP; experiment: Activity of concentrated peptide preparations; type: cell-based; details: data not shown
Source text: as §3

[16] = test system: Staph. aureus DPC5245; experiment: Activity of concentrated peptide preparations; type: cell-based; details: data not shown
Source text: as §3

[17] = test system: Strep. pneumoniae; details: cited from earlier work
[18] = test system: Strep. agalactiae ATCC13813; experiment: Specific activity of purified peptide, equimolar concentrations; type: cell-based
Method: (§4) Deferred antagonism assays were performed by replicating strains on GM17 or GM17 x-gal agar plates and allowing them to grow overnight before overlaying with either GM17/BHI/TS/MH agar (0.75% w/v agar) seeded with the appropriate indicator strain. Zone size was calculated as the diameter of the zone of clearing minus the diameter of bacterial growth (5 mm) For higher throughput screening of N20PXX, XM21VX, XXK22T and XXX banks deferred antagonism assays were performed by replicating strains using a 96 pin replicator (Boekel) or spotting 5 μl of a fresh overnight culture on GM17 agar plates and allowing them to grow overnight. […] For well-diffusion assays molten agar was cooled to 48° C. and seeded with the appropriate indicator strain. The inoculated medium was rapidly transferred into sterile Petri plates in 50 ml volumes, allowed to solidify and dried. Wells (4.6 mm in diameter) were then made in the seeded plates. […] Bioactivity was expressed as arbitrary units/ml (AU/ml) and calculated as the reciprocal of the highest dilution that gave a definite zone multiplied by the conversion factor (i.e. 20 when 50 μl was used) (Ryan et al., 1996).

[19] = test system: L. lactis HP; experiment: Deferred antagonism assay; type: cell-based, L. lactis spp cremoris; details: producing strain
Method: Deferred antagonism assays were performed by replicating strains on GM17 or GM17 x-gal agar plates and allowing them to grow overnight before overlaying with either GM17/BHI/TS/MH agar (0.75% w/v agar) seeded with the appropriate indicator strain. Zone size was calculated as the diameter of the zone of clearing minus the diameter of bacterial growth (5 mm) For higher throughput screening of N20PXX, XM21VX, XXK22T and XXX banks deferred antagonism assays were performed by replicating strains using a 96 pin replicator (Boekel) or spotting 5 μl of a fresh overnight culture on GM17 agar plates and allowing them to grow overnight. […] Additional sets of indicators were employed to further assess/reassess the bioactivity of a number of strains. […] For well-diffusion assays molten agar was cooled to 48° C. and seeded with the appropriate indicator strain. The inoculated medium was rapidly transferred into sterile Petri plates in 50 ml volumes, allowed to solidify and dried. […] Bioactivity was expressed as arbitrary units/ml (AU/ml) and calculated as the reciprocal of the highest dilution that gave a definite zone multiplied by the conversion factor (i.e. 20 when 50 μl was used) (Ryan et al., 1996).
In all cases the bioactivity of each variant was assessed by the size of the zone of inhibition in a deferred antagonism assay against various indicator strains. […]

[20] = test system: Staph. aureus ST528; experiment: Specific activity of purified peptide, equimolar concentrations; type: cell-based
Method: as §4

[21] = test system: Listeria innocua FH2051; experiment: Co-cultivation assay in GM17; type: cell-based; details: GM17, 30° C.
Method: The indicator used for this trial was Listeria innocua FH2051 or L. monocytogenes EGDe. GM17 was co-inoculated with Listeria and the nisin variant producer being tested. […] The culture preparations were incubated at 30° C. Listeria numbers were determined on the basis of viable counts. For this purpose a dilution series were prepared at specific time intervals and plated onto Listeria selective agar base (Oxford formulation) (Oxoid Ltd.).
Assessment of the ability of nisin-variant producing lactococci to inhibit the growth of Listeria in broth: The ability of Listeria to survive in the presence of nisin-producing L. lactis strains was examined using a co-cultivation approach. Initial trials employed Listeria innocua FH2051 as a target.

| Substance | Bioactivity relative to control [1] | Bioactivity relative to control [2] | Bioactivity relative to control [3] | bacteriocin production/bioactivity relative to L. lactis NZ9700 [4] | Strain(s) against which the derivative (producing strain) displays enhanced bioactivity [5] | zone size relative to that of the NZ9800 pCI372nisA control [6] | zone size relative to that of the NZ9800 pCI372nisA control [7] | zone size relative to that of the NZ9800 pCI372nisA control [8] | Bioactivity relative to control [9] | Bioactivity relative to control [10] | Bioactivity relative to control [11] | Bioactivity relative to control [12] | Bioactivity relative to control [13] | activity relative to the wild-type peptide [14] | activity relative to the wild-type peptide [15] | activity relative to the wild-type peptide [16] | also measured |
| --- | --- | --- | --- | --- | --- | --- | --- | --- | --- | --- | --- | --- | --- | --- | --- | --- | --- |
| NisinA K22S (ITSISLCTPGCKTGALMGCNMSTATCHCSIHVSK; not fully specified; also: lantibiotic nisin: dehydrated residues and thioether rings not placed; UniProt P13068 24-57, looked up, variant K22S) [nisin A derivative, hinge substitution K22S] | − | + | − | enhanced | Strep. agalactiae ATCC13813, Staph. aureus ST528 and Staph. aureus DPC5245 and L. monocytogenes CBC2 and CBC8 and L. lactis CBC8 and L. monocytogenes CBC2, L. lactis CBC8, S. aureus ST528 | 142% | 124% | 154% | − | − | − | + | − |  |  |  |  |
| M21C: nisin A derivative, hinge substitution M21C (ITSISLCTPGCKTGALMGCNCKTATCHCSIHVSK; cysteine pairing not given here; also: lantibiotic nisin-A; UniProt P13068 24-57, looked up, variant M21C) | − | − | − |  |  | 0% | 0% | 0% | − | − | − | − | − | undetectable | drastically reduced | undetectable |  |
| nisin |  |  |  |  |  |  |  |  |  |  |  |  |  |  |  |  | minimum inhibitory concentration (MIC) ([17]; penicillin-susceptible strain before serial exposure to nisin): 0.4 µg/mL; minimum inhibitory concentration (MIC) ([17]; stable nisin-resistant mutants after serial exposure to nisin (1 mg/L)): 6.4 µg/mL |
| NisinA N20P (ITSISLCTPGCKTGALMGCPMKTATCHCSIHVSK; not fully specified; also: lantibiotic nisin: dehydrated residues and thioether rings not placed; UniProt P13068 24-57, looked up, variant N20P) [nisin A derivative, hinge substitution N20P] | + | − | − | enhanced | CBC4, L. monocytogenes CBC3, C. sporogenes CBC5 and L. lactis CBC7 | 22% | 123% | 125% | − | + | + | − | + |  |  |  | reduction in specific activity relative to nisin A [18]: 75%; bioactivity against L. lactis HP relative to control [19]: enhanced; increased specific activity relative to nisin A [20]: 100%; impact on growth of FH2051 [21]: reduced its numbers |
| N20C: nisin A derivative, hinge substitution N20C (ITSISLCTPGCKTGALMGCCMKTATCHCSIHVSK; cysteine pairing not given here; also: lantibiotic nisin-A; UniProt P13068 24-57, looked up, variant N20C) |  |  |  |  |  | 0% | 0% | 0% |  |  |  |  |  | undetectable | drastically reduced | undetectable |  |
